Data on two compounds can be found in ChEMBL document CHEMBL1148809, “Biological evaluation, structure-activity relationships, and three-dimensional quantitative structure-activity relationship studies of dihydro-beta-agarofuran sesquiterpenes as modulators of P-glycoprotein-dependent multidrug resistance” (J Med Chem, 2007).

The target of data set [1] is ATP-dependent translocase ABCB1 (Homo sapiens, UniProt P08183). As to the kind of experiment: (§1) Inhibition of human Pgp-mediated DNR transport in NIH3T3 cells by microplate assay. Format: cell-based, Mus musculus. The conditions noted are these: read-out: Ki.
Sequence of ATP-dependent translocase ABCB1 (P08183 whole entry): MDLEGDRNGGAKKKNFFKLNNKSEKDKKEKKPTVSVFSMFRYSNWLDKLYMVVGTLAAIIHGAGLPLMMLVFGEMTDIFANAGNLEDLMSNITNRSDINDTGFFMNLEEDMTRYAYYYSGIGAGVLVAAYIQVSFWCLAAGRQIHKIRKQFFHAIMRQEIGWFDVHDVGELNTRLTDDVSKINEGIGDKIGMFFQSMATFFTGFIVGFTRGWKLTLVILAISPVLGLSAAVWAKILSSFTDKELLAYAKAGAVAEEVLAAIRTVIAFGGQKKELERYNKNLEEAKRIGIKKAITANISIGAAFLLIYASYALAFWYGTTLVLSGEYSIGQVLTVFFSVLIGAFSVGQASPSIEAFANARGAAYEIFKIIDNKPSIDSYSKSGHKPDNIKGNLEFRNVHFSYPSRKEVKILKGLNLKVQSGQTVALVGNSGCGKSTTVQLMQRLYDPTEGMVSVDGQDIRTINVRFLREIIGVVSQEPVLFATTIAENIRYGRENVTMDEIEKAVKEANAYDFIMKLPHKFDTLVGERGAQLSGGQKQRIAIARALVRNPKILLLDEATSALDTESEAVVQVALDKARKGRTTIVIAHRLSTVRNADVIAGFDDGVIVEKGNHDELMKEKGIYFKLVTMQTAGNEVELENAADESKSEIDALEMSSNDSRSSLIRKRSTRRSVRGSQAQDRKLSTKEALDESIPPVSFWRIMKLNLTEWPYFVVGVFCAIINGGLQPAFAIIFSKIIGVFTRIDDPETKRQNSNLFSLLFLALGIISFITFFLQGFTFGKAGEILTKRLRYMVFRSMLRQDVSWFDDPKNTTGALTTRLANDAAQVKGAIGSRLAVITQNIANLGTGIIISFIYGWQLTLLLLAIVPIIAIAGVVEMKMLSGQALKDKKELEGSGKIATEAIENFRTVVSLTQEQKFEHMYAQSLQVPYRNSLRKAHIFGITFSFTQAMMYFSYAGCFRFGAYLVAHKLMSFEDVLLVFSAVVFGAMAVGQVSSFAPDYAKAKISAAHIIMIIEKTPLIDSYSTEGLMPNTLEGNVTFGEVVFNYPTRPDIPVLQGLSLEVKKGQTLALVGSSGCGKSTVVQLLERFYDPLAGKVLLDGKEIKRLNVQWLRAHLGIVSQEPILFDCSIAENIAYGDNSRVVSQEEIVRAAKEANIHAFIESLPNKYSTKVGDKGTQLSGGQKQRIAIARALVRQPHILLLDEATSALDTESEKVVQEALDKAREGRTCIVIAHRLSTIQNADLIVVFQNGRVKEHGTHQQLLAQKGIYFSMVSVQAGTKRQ
The target of data set [2] is P-gp (ABCB1) (Homo sapiens, UniProt P08183). The data set is described as §1. Format: cell-based, Mus musculus. The conditions noted are these: mouse, NIH3T3 cells expressing human P-gp, probe DNR; read-out: Imax.
Sequence of P-gp (ABCB1) (P08183 whole entry): as above
Data set [3] can be described thus: Partition coefficient, log P of the compound. In kind it is physicochemical. The conditions noted are these: octanol/water; read-out: LogP.

Molecules are shown by their SMILES. pKi: −log10 of the molar value.

For orientation: pKi means the Ki on a negative log10 scale, so that one unit is a factor of ten. What is called logP is a log measure of how a compound divides between an organic and an aqueous phase. For `CC(=O)OC[C@]12[C@@H](OC(=O)c3ccccc3)[C@@H](OC(=O)c3ccccc3)[C@@H]3[C@@H](OC(C)=O)[C@]1(OC3(C)C)[C@H](C)C[C@H](OC(C)=O)[C@@H]2OC(C)=O`, in data set [1], the negative-log Ki (pKi) is 5.77. Further, in data set [2], the Emax came out at 86.2%. In data set [3], the log partition coefficient (logP) is 8.3.

For the compound `CC(=O)OC[C@]12[C@H](OC(=O)c3ccccc3)C(=O)[C@@H]3[C@@H](OC(C)=O)[C@]1(OC3(C)C)[C@H](C)C[C@H](OC(C)=O)[C@@H]2OC(=O)c1ccccc1`, the negative logarithm of the Ki (pKi) in data set [1] is 5.79. Moreover, the Emax in data set [2] stood at 81.6%. For the same compound, the log partition coefficient (logP) in data set [3] stood at 8.1.
